Test results taken from patent US20250255850A1, “PHARMACEUTICAL COMPOSITIONS FOR TREATING NEUROLOGICAL CONDITIONS” (YISSUM RESEARCH DEVELOPMENT COMPANY OF THE HEBREW …, priority 2021, published 2025).

Experiments:
SHANK3 mutant mice [1] = experiment: Three-chamber sociability test, SHANK3 mutant mice; type: in vivo, mouse
Method: Three-chambered sociability test (see, FIG. 4B): Sociability and preference for social novelty and social recognition were tested in a three-chambered apparatus. The subjected mouse was first placed in the central, neutral chamber and allowed to explore for 10 minutes with all the doors closed. Next, doors were opened and the mouse was allowed to freely explore the other two empty chambers (1 and 2) for an additional 10 minutes. Lack of side preference was confirmed during this habituation.
Two cylindrical wire cages were placed, one in chamber 1 and the other in chamber 2. For the sociability test, the test animal was introduced to the middle chamber and allowed to adjust for 5 minutes. Then, an unfamiliar mouse was introduced into a wire cage in one of the side-chambers, and the other side-chamber remained empty. The time spent by the test mouse exploring the wire cage with an unfamiliar mouse inside was recorded for 5 minutes.
Next, to examine social memory, novel mice is introduced to the empty cage and the tested mice is examined whether they are interested in the novel mice compared to the familiar.
(§1) A dose dependent study was conducted to determine the optimal dose that may produce the greatest effect on mice behavior. The SHANK3 mutant mice (n=5 for each group) were treated with the 7-NI (i.p) at doses of 0, 20, 50, and 80 mg/kg. This was followed by a set of behavioral tests to assess the proper dose of 7-NI that can reverse the autistic phenotypes observed in this model.
A three-chamber sociability test was conducted to evaluate the interest of mice in engaging in social interaction with a stranger mouse, as described hereinabove and shown in FIG. 4B. […] Comparing to the 50 mg/kg, although statistically the difference is not significant, the 80 mg/kg-treated group spent more time interacting with the stranger mouse.
A 100 μL injection of the poly(sebacic acid-ricinoleic acid) (PSARA) gel formulation with 7NI was used to evaluate its effect in reversing ASD-like behaviors in SHANK3 mice. […]

3-nitrotyrosine [2] = experiment: Western blot of 3-nitrotyrosine in cortical tissue, CNTNAP2(-/-) mutant group (M2); type: in vivo, mouse; conditions: CNTNAP2(-/-) mutant mice treated with 7-NI (M2+7-NI) vs M2
Method: (§2) Behavioral testing started after 2 hours of treatment.
(§3) To further corroborate these findings, the expression of 3-nitrotyrosine in cortical tissue of the wild type (WT), compared with the SHANK3 mutant group (M1), and SHANK3 group treated with 7-NI (M1+7-NI), and in cortical tissue of the wild type (WT), compared with the CNTNAP2^(−/−) mutant group (M2), and the CNTNAP2^(−/−) mutant group treated with 7-NI (M2+7—NI) was tested, and the obtained data is presented in FIGS. 3C-D (for M1) and in FIGS. 3E-F (for M2).

[3] = even in very high doses; Biopharm. Drug Dispos. 2000, 21, 221-228; cited from earlier work
neuronal NOS = neuronal NOS (Homo sapiens, UniProt P29475); conditions: Pharm Res., 2001, 18, 1607-1612; cited from earlier work
neuronal NOS, sequence (P29475 whole entry, species assumed): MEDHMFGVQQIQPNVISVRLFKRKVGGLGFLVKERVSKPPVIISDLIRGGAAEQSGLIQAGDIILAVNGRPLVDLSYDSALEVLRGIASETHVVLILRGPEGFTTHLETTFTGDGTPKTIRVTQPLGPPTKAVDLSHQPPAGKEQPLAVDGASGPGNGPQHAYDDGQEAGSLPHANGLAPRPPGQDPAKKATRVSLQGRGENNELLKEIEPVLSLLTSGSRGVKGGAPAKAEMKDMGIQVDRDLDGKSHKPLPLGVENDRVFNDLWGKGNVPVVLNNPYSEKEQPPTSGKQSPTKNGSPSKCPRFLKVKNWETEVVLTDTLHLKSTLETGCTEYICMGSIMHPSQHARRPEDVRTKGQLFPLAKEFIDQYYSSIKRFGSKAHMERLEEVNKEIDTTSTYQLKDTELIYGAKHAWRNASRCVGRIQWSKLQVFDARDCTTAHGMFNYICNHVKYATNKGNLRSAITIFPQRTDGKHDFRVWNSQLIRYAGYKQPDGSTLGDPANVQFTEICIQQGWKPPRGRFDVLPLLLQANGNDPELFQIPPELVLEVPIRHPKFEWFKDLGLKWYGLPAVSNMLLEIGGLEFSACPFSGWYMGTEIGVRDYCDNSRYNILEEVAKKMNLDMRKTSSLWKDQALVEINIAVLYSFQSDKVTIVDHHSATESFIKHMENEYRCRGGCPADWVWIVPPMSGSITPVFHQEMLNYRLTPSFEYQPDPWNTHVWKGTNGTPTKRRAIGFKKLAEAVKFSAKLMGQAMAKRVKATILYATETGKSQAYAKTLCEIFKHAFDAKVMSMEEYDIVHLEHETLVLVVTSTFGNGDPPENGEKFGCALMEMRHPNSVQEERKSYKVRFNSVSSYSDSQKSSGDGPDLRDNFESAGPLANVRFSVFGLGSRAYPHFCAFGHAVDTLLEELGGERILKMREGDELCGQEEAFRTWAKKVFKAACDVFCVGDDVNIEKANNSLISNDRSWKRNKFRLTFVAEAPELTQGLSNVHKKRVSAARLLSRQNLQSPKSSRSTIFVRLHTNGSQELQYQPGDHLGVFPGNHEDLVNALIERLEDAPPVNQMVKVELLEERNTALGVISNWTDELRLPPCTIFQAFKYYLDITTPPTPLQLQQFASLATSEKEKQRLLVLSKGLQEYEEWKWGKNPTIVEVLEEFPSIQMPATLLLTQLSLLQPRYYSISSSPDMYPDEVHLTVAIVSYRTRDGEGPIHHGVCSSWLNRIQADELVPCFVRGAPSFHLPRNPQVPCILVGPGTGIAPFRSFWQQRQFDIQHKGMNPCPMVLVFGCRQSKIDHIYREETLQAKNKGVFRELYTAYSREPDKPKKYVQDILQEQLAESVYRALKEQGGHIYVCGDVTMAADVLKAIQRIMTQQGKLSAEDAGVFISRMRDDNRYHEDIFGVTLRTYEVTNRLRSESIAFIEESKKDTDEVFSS

3-nitrotyrosine [4] = experiment: Western blot of 3-nitrotyrosine in cortical tissue, SHANK3 mutant group (M1); type: in vivo, mouse; conditions: SHANK3 mutant mice treated with 7-NI (M1+7-NI) vs M1
Method: as §2, §3

SH-SY5Y cells = experiment: Nitrite (Griess) assay in SH-SY5Y cells; type: cell-based, human; conditions: 7-NI 100 μM 24 hours or 20 nM nNOS siRNA 24 hours
Method: Human NB SH-SY5Y cells were obtained from the American Type Culture Collection (ATCC) and maintained in Dulbecco's modified Eagle's medium (DMEM) and Ham's F-12 (1:1) supplemented with 10% fetal bovine serum, 2 mM L-glutamine, and 100 U/ml penicillin-G/100 […] streptomycin in a humidified atmosphere (37° C., 5% CO2). Cells were plated onto 25 cm^2 and 75 cm^2 plates at a density of 7.0×10^5 and 2.1×10^6 cells/cm^2 respectively for Western blotting (WB) and 1×10^5 for immunofluorescence. The SH-SY5Y cells were treated with 100 μM 7-nitroindazole (7-NI) for 24 hours (Fujibayashi et al., 2015). This concentration was confirmed in a dose-response experiment (FIG. 14A) using an MTT viability assay.
SH-SY5Y cells were plated in 6 well plates, as well as on 22 mm^2 coverslips at a density of 6.0×10^4 cells/cm^2 and transfected with 20 nM nNOS siRNA (NOSIHSS1072, Invitrogen) for 24 hours, with the use of Lipofectamine RNAi MAX (56530, Invitrogen) according to the manufacturer's protocol. Then cells were washed with phosphate-buffered saline (PBS) and harvested for WB and fixed for immunofluorescence (Fujibayashi et al., 2015).
Released NO was measured with Griess assay Kit (Sigma-Aldrich, Cat. No. 23479) using the manufacturer's instructions.

[5] = Solubility of 7-nitroindazole in PNL formulation of Table 1; type: physicochemical; conditions: PNL formulation of Table 1, clear liquid
Source text: Table 1 below presents an exemplary PNL formulation according to some embodiments of the present invention.
The formulation can be prepared by mixing the components at room or elevated temperature to form a clear liquid which 7-nitroindazole is soluble in at about 20% w/v.

SHANK3 mutant mice [6] = experiment: Open field test, SHANK3 mutant mice; type: in vivo, mouse; conditions: 7-NI i.p. 20, 50 and 80 mg/kg
Method: Open field test: Mice were tested in an open field (45×45 cm) virtually divided into central and peripheral regions. Animal activity was recorded by video tracking (Noldus Ethovision). Each mouse was allowed to explore the apparatus for 5 minutes. The distance traveled, the number of rears and revolutions, the number of grooming bouts and cumulative grooming time, the number of head shaking or twitches, the number of entries in the center, and the time spent in the central and peripheral regions were recorded. Measures were recorded in 5-minute intervals.
as §1
Initially, an open field test was performed to examine the general motor activity levels in mice that is measured by the distance travelled and velocity.
A 100 μL injection of the poly(sebacic acid-ricinoleic acid) (PSARA) gel formulation with 7NI was used to evaluate its effect in reversing ASD-like behaviors in SHANK3 mice. The motor activity, social interaction, anxiety and interest behaviors were examined using the behavior analyses as described herein.

CNTNAP2−/− mutant mice = experiment: Elevated plus maze test, CNTNAP2-/- mutant mice (M2); type: in vivo, mouse; conditions: 7-NI i.p. 80 mg/kg daily for 10 days, vs untreated mutant mice
Method: as §2
Elevated plus maze test (see, FIG. 4C): The elevated plus-maze consisted of four arms (30×5 cm), two open, and the other two closed. The platform was made of white plexiglass. The apparatus was elevated 45 cm above the floor. The test, described in, was initiated by placing the mouse on the central platform of the maze, facing one of the open arms, and letting it move freely. Each session lasted 5 min. The time spent in the close and open arms was recorded.
In another set of tests, the potential effects of inhibiting NO on the cognitive functions was assayed on an additional mouse model of ASD-CNTNAP2−/− mutant mice. The mice were divided into three testing groups: WT mice, CNTNAP2−/− mutant mice (M2), and mutant mice that were administered with 7-NI (M2+7NI).

- solubility in PNL formulation [5]: about 20 % w/v
Compound: O=[N+]([O-])c1cccc2cn[nH]c12 [7-NI, 7-nitroindazole]
- time interacting with the stranger mouse (first session) (SHANK3 mutant mice [1]; 7-NI 80 mg/kg compared to 20 mg/kg): spent significantly more time interacting with the stranger mouse
- time interacting with the novel mouse (S2) (second session) (SHANK3 mutant mice [1]; 7-NI 80 mg/kg compared to lower doses): spent more time interacting with the novel mouse (S2)
- dose yielding the greatest reversal of the autistic phenotypes (SHANK3 mutant mice [1]; doses 0, 20, 50, 80 mg/kg i.p.): 80 mg/kg
- expression of 3-Ntyr in cortical tissue (3-nitrotyrosine [2]): reduced the expression of 3-Ntyr
- half-life [3]: ≤ 2 h
- selectivity for neuronal NOS (neuronal NOS): 10 fold
- expression of 3-Ntyr in cortical tissue (3-nitrotyrosine [4]): reduced the expression of 3-Ntyr
- nitrite content (Griess assay) (SH-SY5Y cells): reduction of nitrite content
- motor activity (distance travelled and velocity, open field) (SHANK3 mutant mice [6]): no significant difference in the motor activity
- anxiety like behaviors (elevated plus maze) (CNTNAP2−/− mutant mice): exhibited less anxiety like behaviors
